Where two headings read alike, the source gives them in different places.
Tests used:
MES seizures, mice = test: Maximal electroshock (MES) seizure test; assay type: in vivo; settings: Mus musculus, ip; for responders at 100 mg/kg: 0.5 h, i.p.; for ED50: at TPE (0.5 h; LTG 1.0 h), 95% confidence intervals in parentheses
[1] = system: motor coordination of mice; test: Rotarod test for acute neurological toxicity; settings: for impairment of motor coordination of mice: doses as high as 300 mg/kg; for Rotarod test, number of mice / number of mice tested: i.p., 100 mg/kg, 0.5 h
[2] = Rotarod test for acute neurological toxicity; settings: mouse, in vivo, ip
Na+ channel (site 2) = test: Radioligand binding, Na+ channel (site 2); settings: 10 µM; rat cerebral cortex
Method: (§1) Taking into consideration the structural similarities of molecules described in the current manuscript with their chemical prototypes AS-1 and DK-1, the binding studies toward aforementioned molecular targets were performed commercially for several active substances from each subseries (3, 4, 21, 24, 25, 27, 29, and 30). Furthermore, we also tested two other and well-known targets for AEDs, namely, the Cav2.2 (N-type) calcium channel and gamma-aminobutyric acid (GABA)-A receptor. With the aim of excluding potentially dangerous proarrhythmic properties for each compound, their interaction with the potassium (hERG) channel was also tested.
(§2) Binding studies were carried out commercially in Eurofines Laboratories (Poitiers, France). The functional assays were performed in Eurofins Panlabs Discovery Services Taiwan, Ltd. (New Taipei City, Taiwan). All procedures are described elsewhere (for details, see Table S4 in Supplementary Materials).
(§3) Binding studies were carried out commercially in Eurofines Laboratories (Poitiers, France). The
(§4) functional assays were performed in Eurofins Panlabs Discovery Services Taiwan, Ltd. (New Taipei
(§5) City, Taiwan). All procedures are described elsewhere (Table S4).
Table S4. In vitro binding and functional assays. […]

[3] = system: 6 Hz (32 mA) seizures, mice; test: Psychomotor 6 Hz (32 mA) seizure model; assay type: in vivo; settings: for responders at 100 mg/kg / ED50: Mus musculus, ip; for responders at 100 mg/kg / protection in the 6 Hz (32 mA) test: 0.5 h, 100 mg/kg; for responders at 100 mg/kg: read-out: 6 Hz (32 mA) test, number of mice protected / number of mice tested (converted); for ED50: at TPE (0.5 h; LTG 1.0 h), 95% confidence intervals in parentheses; for protection in the 6 Hz (32 mA) test: i.p., groups of four
[4] = target: T1, GABA-A receptor (α1,β2,γ2) (Homo sapiens, UniProt P14867+P47870); test: Radioligand binding, GABA-A receptor; design: dose or concentration left out as unconfirmed; settings: rat cerebral cortex; read-out: % Inhibition of Control Specific Binding, GABA-A Receptor (α1,β2,γ2) (Agonist Radioligand)
T1 construct: Eurofins (Poitiers, France), contract assay
Method: as §1, §2, §3, §4, §5
(§6) Table S4. In vitro binding and functional assays.
(§7) GABA-A receptor (α1,β2,γ2)
(§8) Potassium channel (hERG) 14
(§9) Cav1.2 (h) calcium ion channel cell based antagonist calcium flux assay 16,17

Cav2.2 channel = target: T2, Cav2.2 channel (Rattus norvegicus, UniProt Q02294); test: Radioligand binding, Cav2.2 channel; design: dose or concentration left out as unconfirmed; settings: rat cerebral cortex; read-out: % Inhibition of Control Specific Binding, Cav2.2 Channel (Antagonist Radioligand)
T2 construct: tissue Eurofins (Poitiers, France), contract assay; host or cells: rat cerebral cortex (own knowledge of the vendor's assay)
Method: as §1, §2, §3, §4, §5, §6, §7, §8, §9

Cav1.2 channel = target: T3, Cav1.2 channel (Rattus norvegicus, UniProt P22002); test: Radioligand binding, Cav1.2 channel; design: inhibition: dose or concentration left out as unconfirmed; settings: rat cerebral cortex; read-out: % Inhibition of Control Specific Binding, Cav1.2 Channel (Antagonist Radioligand)
T3 construct: tissue Eurofins (Poitiers, France), contract assay; host or cells: rat cerebral cortex (own knowledge of the vendor's assay)
T3 sequence (P22002 whole entry): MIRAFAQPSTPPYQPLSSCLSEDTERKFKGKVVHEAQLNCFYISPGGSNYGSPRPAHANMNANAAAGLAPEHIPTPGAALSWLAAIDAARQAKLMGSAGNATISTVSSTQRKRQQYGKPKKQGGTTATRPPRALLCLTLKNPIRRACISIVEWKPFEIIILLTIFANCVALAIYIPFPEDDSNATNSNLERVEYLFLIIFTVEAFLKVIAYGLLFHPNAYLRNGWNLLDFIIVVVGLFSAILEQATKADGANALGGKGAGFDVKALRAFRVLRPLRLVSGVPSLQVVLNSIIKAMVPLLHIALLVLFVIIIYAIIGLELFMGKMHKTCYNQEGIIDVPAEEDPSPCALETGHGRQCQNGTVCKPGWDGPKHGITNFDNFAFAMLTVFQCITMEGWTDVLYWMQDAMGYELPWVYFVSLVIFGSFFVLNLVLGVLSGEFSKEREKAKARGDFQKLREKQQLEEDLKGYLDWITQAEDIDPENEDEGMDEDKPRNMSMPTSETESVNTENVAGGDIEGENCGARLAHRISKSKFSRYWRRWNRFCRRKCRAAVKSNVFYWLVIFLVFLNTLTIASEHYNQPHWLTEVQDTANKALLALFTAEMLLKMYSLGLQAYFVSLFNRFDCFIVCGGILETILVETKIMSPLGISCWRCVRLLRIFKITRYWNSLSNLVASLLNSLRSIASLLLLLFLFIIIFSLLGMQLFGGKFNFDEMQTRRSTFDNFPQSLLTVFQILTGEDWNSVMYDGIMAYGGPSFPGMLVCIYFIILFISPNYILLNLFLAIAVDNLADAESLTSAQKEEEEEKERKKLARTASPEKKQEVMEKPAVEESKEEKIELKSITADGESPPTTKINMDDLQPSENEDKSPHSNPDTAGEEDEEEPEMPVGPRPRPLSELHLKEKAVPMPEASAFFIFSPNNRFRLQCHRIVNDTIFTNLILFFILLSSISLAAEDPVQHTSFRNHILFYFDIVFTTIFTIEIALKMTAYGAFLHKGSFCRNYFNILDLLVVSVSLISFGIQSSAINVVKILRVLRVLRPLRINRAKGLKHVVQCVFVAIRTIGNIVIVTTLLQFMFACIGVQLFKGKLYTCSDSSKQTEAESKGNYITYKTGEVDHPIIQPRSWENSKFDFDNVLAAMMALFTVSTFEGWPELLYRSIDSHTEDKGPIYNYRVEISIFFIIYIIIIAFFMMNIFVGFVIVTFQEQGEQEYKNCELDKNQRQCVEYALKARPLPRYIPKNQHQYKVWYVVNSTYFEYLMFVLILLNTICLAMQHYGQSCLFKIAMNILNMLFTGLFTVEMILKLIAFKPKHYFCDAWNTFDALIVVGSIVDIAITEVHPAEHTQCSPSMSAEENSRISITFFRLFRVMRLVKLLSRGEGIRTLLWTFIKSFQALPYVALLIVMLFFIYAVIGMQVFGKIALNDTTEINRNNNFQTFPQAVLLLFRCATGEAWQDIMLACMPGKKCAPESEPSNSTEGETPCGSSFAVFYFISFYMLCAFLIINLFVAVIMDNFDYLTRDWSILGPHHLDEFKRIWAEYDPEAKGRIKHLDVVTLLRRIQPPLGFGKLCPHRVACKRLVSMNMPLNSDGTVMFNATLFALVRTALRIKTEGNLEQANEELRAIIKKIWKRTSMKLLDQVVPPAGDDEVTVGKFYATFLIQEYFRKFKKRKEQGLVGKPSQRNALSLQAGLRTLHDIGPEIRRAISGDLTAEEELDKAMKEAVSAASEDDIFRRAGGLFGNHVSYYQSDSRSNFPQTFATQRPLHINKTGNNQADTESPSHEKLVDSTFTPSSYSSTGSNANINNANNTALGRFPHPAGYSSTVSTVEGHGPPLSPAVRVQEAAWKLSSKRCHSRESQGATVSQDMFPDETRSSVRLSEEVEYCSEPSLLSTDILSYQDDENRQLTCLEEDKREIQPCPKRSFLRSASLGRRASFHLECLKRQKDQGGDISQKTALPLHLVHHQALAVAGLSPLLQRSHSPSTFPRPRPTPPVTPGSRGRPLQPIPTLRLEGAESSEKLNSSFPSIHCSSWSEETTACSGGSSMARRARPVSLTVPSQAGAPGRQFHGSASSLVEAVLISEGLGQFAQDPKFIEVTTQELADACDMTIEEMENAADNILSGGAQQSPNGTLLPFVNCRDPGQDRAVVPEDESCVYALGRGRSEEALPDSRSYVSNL
T3 sequence (P54287 whole entry partner): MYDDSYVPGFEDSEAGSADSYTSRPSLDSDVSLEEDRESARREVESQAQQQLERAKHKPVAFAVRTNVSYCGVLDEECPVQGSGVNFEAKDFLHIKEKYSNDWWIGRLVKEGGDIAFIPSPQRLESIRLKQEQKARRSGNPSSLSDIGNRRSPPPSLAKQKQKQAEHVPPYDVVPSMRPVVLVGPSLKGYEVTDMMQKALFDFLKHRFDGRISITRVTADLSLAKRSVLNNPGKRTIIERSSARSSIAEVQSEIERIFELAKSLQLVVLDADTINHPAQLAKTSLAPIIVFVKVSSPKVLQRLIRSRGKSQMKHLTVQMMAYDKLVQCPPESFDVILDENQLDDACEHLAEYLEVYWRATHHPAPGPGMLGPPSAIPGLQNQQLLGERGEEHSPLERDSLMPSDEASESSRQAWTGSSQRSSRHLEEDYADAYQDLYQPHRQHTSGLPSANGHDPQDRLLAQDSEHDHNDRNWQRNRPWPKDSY
T3 sequence (P54290 25-944 partner limits assumed): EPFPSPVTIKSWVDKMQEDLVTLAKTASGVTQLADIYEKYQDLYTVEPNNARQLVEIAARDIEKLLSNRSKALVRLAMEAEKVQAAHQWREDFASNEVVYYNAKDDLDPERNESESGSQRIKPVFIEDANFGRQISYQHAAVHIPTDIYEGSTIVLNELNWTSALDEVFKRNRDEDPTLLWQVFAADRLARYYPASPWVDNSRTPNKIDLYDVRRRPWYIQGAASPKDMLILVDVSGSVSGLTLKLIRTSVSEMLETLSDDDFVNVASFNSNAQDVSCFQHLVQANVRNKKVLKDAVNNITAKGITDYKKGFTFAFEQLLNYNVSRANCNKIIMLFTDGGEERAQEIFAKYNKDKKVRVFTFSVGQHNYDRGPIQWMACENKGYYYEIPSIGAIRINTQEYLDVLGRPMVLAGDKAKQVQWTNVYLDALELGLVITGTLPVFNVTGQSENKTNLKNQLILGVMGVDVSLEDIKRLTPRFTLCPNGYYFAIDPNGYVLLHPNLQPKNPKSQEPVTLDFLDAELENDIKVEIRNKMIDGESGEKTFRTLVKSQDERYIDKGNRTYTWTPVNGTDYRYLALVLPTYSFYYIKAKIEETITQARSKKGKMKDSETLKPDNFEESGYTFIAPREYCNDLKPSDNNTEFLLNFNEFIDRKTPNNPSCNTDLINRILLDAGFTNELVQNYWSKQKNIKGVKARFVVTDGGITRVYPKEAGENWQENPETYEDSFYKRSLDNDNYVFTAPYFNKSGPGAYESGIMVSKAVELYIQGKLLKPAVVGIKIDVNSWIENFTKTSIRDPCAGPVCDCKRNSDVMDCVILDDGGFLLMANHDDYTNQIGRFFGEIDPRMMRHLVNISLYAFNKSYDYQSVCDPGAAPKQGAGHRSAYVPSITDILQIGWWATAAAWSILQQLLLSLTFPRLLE
T3 sequence (P54290 945-1091 partner limits assumed): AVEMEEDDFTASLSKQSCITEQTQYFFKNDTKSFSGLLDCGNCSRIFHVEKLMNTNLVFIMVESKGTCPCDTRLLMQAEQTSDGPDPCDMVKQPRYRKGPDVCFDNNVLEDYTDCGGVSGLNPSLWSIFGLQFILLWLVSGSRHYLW
Method: as §1, §2, §3, §4, §5, §6, §7, §8, §9

Potassium channel (hERG) = target: T4, Potassium channel (hERG) (Homo sapiens, UniProt Q12809); test: Binding, potassium channel (hERG); settings: 100 µM; human recombinant (HEK-293 cells)
T4 construct: Eurofins (Poitiers, France), contract assay
T4 sequence (Q12809 whole entry): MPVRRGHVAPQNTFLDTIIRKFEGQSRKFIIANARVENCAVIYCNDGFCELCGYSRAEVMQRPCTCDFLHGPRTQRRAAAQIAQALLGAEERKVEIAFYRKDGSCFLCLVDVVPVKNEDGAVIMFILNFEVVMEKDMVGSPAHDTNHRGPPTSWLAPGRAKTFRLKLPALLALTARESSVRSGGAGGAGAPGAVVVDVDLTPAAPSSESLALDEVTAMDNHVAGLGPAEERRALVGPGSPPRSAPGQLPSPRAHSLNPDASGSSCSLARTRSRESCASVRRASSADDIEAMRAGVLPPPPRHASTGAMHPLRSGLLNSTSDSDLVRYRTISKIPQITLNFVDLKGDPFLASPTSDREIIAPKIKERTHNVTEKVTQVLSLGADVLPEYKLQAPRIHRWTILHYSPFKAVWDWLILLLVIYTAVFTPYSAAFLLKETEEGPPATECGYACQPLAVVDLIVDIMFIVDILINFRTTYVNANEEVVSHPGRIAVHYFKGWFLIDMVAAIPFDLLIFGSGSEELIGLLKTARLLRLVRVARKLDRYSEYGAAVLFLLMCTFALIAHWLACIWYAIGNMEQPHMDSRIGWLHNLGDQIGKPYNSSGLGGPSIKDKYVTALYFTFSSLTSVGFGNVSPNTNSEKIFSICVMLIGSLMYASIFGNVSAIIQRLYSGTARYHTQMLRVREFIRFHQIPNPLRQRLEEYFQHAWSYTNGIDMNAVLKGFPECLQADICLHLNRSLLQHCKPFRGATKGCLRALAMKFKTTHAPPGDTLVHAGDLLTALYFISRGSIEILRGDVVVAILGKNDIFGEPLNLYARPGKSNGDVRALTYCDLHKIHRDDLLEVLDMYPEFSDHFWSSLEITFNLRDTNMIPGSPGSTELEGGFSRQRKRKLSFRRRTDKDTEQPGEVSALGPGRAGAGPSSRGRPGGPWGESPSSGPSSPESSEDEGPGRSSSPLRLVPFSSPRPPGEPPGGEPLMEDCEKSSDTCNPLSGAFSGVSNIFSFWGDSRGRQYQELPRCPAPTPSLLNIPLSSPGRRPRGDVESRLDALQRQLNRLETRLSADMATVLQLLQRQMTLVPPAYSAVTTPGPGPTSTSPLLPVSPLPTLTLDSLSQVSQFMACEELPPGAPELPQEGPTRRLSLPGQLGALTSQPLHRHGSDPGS
Method: as §1, §2, §3, §4, §5, §6, §7, §8, §9

[5] = groups of four, read-out: protection in the MES test
[6] = read-out: MES test, number of mice protected / number of mice tested (converted)

Structure (SMILES) | responders at 100 mg/kg (MES seizures, mice; [5]) | responders at 100 mg/kg (MES seizures, mice; [6]) | ED50 (MES seizures, mice) | impairment of motor coordination of mice [1] | Rotarod test, number of mice / number of mice tested [1] | TD50 at 0.5 h [2] | % Inhibition of Control Specific Binding, Na+ Channel (Site 2) (Antagonist Radioligand) (Na+ channel (site 2)) | responders at 100 mg/kg [3] | ED50 [3] | inhibition [4] | inhibition (Cav2.2 channel) | inhibition (Cav1.2 channel) | % Inhibition of Control Specific Binding, Potassium Channel (hERG) (Potassium channel (hERG)) | melting point | protection in the 6 Hz (32 mA) test [3] | acute neurological toxicity (rotarod) ([1]; at doses around or below 200 mg/kg)
O=C(Nc1ccccc1)C(c1ccccc1)N1C(=O)CCC1=O (centres unmarked) [Compound 3, 2-(2,5-Dioxopyrrolidin-1-yl)-N,2-diphenylacetamide] | ≥ 50% | 50% | > 130 mg/kg | did not impair motor coordination | 0/4 | > 300 mg/kg | 10.8% | 75% | 92.5 mg/kg | 5.2% | 3.6% | 9% | 0.8% | – | – | –
O=C(Nc1ccc(F)cc1)C(c1ccccc1)N1C(=O)CCC1=O (centres unmarked) [Compound 6, 2-(2,5-Dioxopyrrolidin-1-yl)-N-(4-fluorophenyl)-2-phenylacetamide] | ≥ 50% | 50% | 118 mg/kg | did not impair motor coordination | 0/4 | > 300 mg/kg | – | 50% | 57.6 mg/kg | – | – | – | – | 143.4 to 143.9 °C | at least 50% | –
O=C(Nc1cccc(Cl)c1)C(c1ccccc1)N1C(=O)CCC1=O (centres unmarked) [Compound 8, N-(3-Chlorophenyl)-2-(2,5-dioxopyrrolidin-1-yl)-2-phenylacetamide] | ≥ 50% | 75% | 73.5 mg/kg | did not impair motor coordination | 0/4 | > 300 mg/kg | – | 25% | – | – | – | – | – | 109.4 to 109.9 °C | – | –
O=C(Nc1ccc(Cl)cc1)C(c1ccccc1)N1C(=O)CCC1=O (centres unmarked) [Compound 9, N-(4-Chlorophenyl)-2-(2,5-dioxopyrrolidin-1-yl)-2-phenylacetamide] | ≥ 50% | 75% | 106 mg/kg | did not impair motor coordination | 0/4 | > 300 mg/kg | – | 25% | – | – | – | – | – | 103.8 to 105.6 °C | – | –
O=C(NCc1ccccc1)C(c1ccccc1)N1C(=O)CCC1=O (centres unmarked) [Compound 14, N-Benzyl-2-(2,5-dioxopyrrolidin-1-yl)-2-phenylacetamide] | ≥ 50% | 50% | > 130 mg/kg | did not impair motor coordination | 1/4 | > 300 mg/kg | – | 50% | 62.9 mg/kg | – | – | – | – | 128.3 to 129.9 °C | at least 50% | –
O=C(NCc1cccc(Cl)c1)C(c1ccccc1)N1C(=O)CCC1=O (centres unmarked) [Compound 19, N-(3-Chlorobenzyl)-2-(2,5-dioxopyrrolidin-1-yl)-2-phenylacetamide] | ≥ 50% | 75% | 90.7 mg/kg | did not impair motor coordination | 0/4 | > 300 mg/kg | – | 50% | 89.9 mg/kg | – | – | – | – | – | at least 50% | –
O=C(NCc1cccc(C(F)(F)F)c1)C(c1ccccc1)N1C(=O)CCC1=O (centres unmarked) [Compound 22, 2-(2,5-Dioxopyrrolidin-1-yl)-2-phenyl-N-(3-(trifluoromethyl)benzyl)acetamide] | ≥ 50% | 75% | > 130 mg/kg | did not impair motor coordination | 0/4 | > 300 mg/kg | – | 50% | 57.6 mg/kg | – | – | – | – | 152.8 to 153.4 °C | at least 50% | –
O=C(NCCc1ccccc1)C(c1ccccc1)N1C(=O)CCC1=O (centres unmarked) [Compound 25, 2-(2,5-Dioxopyrrolidin-1-yl)-N-phenethyl-2-phenylacetamide] | ≥ 50% | 75% | 87.9 mg/kg | – | 1/4 | 210 mg/kg | 14.8% | 75% | 88.9 mg/kg | 3.6% | 2.5% | 19% | 4.8% | – | – | moderate acute neurological toxicity
O=C(NCCc1ccc(Cl)cc1)C(c1ccccc1)N1C(=O)CCC1=O (centres unmarked) [Compound 28, N-(4-Chlorophenethyl)-2-(2,5-dioxopyrrolidin-1-yl)-2-phenylacetamide] | – | 100% | 117 mg/kg | – | 1/4 | 272 mg/kg | – | 75% | 88.1 mg/kg | – | – | – | – | 137.2 to 137.8 °C | – | –
O=C(NCCCc1ccccc1)C(c1ccccc1)N1C(=O)CCC1=O (centres unmarked) [Compound 31, 2-(2,5-Dioxopyrrolidin-1-yl)-2-phenyl-N-(3-phenylpropyl)acetamide] | ≥ 50% | 50% | – | – | 0/4 | > 300 mg/kg | – | 50% | 104 mg/kg | – | – | – | – | 133.1 to 133.9 °C | – | –

— PMC7699745, “The Search for New Anticonvulsants in a Group of (2,5-Dioxopyrrolidin-1-yl)(phenyl)Acetamides with Hybrid Structure—Synthesis and In Vivo/In Vitro Studies” (International Journal of Molecular Sciences, 2020)
